How the values were obtained:
Assay type in all cases: cell-based, human
MDAPCa2b cells = test: Cell cycle analysis (propidium iodide, flow cytometry), MDAPCa2b
Experimental: Cell cycle analysis was performed after staining the cells with propidium iodide (PI). For long term bergamottin treatment (96 hrs.) cells were plated at 25–30% confluence and for short term bergamottin treatment (48 hrs.) they were plated at 30–35% confluence. After completion of specified treatment the cells were trypsinized washed with PBS and fixed in 70% ethanol and then stained with PI in nicoletti buffer (propidium iodide 50 μg/ml, 0.1% sodium citrate, 0.1% triton X-100, RNase 1 mg/ml, in DPBS). Cells were analyzed using C6 Accuri flow cytometer (Becton Dickinson, Mountainview, CA). FlowJo software was used to gate and remove the debris (gate on SSC and FSC) and aggregates (FL2 A and FL2H) from the analysis. Watson pragmatic and Dean-Jett -Fox methods was used to assign percentage frequencies to cells present in the different cell cycle stages.

[1] = tested on: cell cycle regulating proteins in LNCaP cells; test: Western blot of cell cycle regulating proteins, LNCaP; conditions: for CDK2, normalized fold change after GAPDH calibration / CDK4, normalized fold change after GAPDH calibration / CDK6, normalized fold change after GAPDH calibration / Cyclin A, normalized fold change after GAPDH calibration / Cyclin B1, normalized fold change after GAPDH calibration / Cyclin D1, normalized fold change after GAPDH calibration / Cyclin D3, normalized fold change after GAPDH calibration / Cyclin E, normalized fold change after GAPDH calibration / Myt 1, normalized fold change after GAPDH calibration / P-Wee1, normalized fold change after GAPDH calibration / P-cdc2, normalized fold change after GAPDH calibration / P-histone H3, normalized fold change after GAPDH calibration / p21, normalized fold change after GAPDH calibration / p27, normalized fold change after GAPDH calibration: LNCAP, 48 hrs., 0 μM = 100
Experimental: Cells were plated at 25–30% confluence when maintained in complete media. When the cells required DHT tretment and media replacement to charcoal stripped serum media (CSSM) they were plated at 35–40% confluence. Bergamottin is dissolved in DMSO (vehicle control) and the amount of DMSO at each treatment group was kept constant. After the completion of the treatment cells were washed in phosphate buffer (PBS) containing 2mMEDTA and 2mM EGTA and lysed in RIPA buffer (50 mM TRIS, 150 mM NaCl, 1% NP40, 0.5% sodium deoxycholate, 0.1% SDS, 2mM EDTA, 2mM EGTA) supplemented with protease and phosphatase inhibitors for total protein isolation. Protein estimation was performed using micro BCA assay and equal protein amponts were loaded on SDS-PAGE gels for western analysis. GAPDH was used as an internal control for total protein. Infrared fluorescent-labeled secondary antibodies were used for detection using Odyssey CLx. The bands were quantified using Odyssey software, which calculates pixel density and automatically takes an area adjacent to each band for background corrections. […]

LNCaP cells = test: TUNEL apoptosis detection assay, LNCaP; conditions: 10μM, 4 days
Experimental: To detect apoptosis in the cells after bergamottin treatment In Situ cell death detection kit from Sigma-Aldrich (St. Louis, MO) was used. This apoptosis detection kit fluorescently labels the single and double-stranded DNA breaks caused due to apoptosis using terminal deoxynucleotidyl transferase (TUNEL-reaction). The cells were plated in poly- D- lysine coated 35 mm Glass bottom dish (Cellvis catalog# D35C4-20-1.5-N), treated with bergamottin for the specified time, and dosage and then stained with the kit reagents. The kit recommended protocol was followed. After the staining, the confocal microscope was used to procure images of the cells. The TUNEL assay preferentially labels apoptosis in comparison to necrosis and positive apoptosis is recognized when cells incorporate fluorescent labelled nucleotide (Ex 450 to 500nm and Em 515 to 565-green).

[2] = tested on: PARP cleavage in MDAPCa2b cells; test: Western blot of PARP cleavage, MDAPCa2b; conditions: 5 and 10 μM for 96 hrs. and 20 μM for 48 hrs.
Experimental: Cells were plated at 25–30% confluence when maintained in complete media. When the cells required DHT tretment and media replacement to charcoal stripped serum media (CSSM) they were plated at 35–40% confluence. Bergamottin is dissolved in DMSO (vehicle control) and the amount of DMSO at each treatment group was kept constant. After the completion of the treatment cells were washed in phosphate buffer (PBS) containing 2mMEDTA and 2mM EGTA and lysed in RIPA buffer (50 mM TRIS, 150 mM NaCl, 1% NP40, 0.5% sodium deoxycholate, 0.1% SDS, 2mM EDTA, 2mM EGTA) supplemented with protease and phosphatase inhibitors for total protein isolation. Protein estimation was performed using micro BCA assay and equal protein amponts were loaded on SDS-PAGE gels for western analysis. GAPDH was used as an internal control for total protein. Infrared fluorescent-labeled secondary antibodies were used for detection using Odyssey CLx. The bands were quantified using Odyssey software, which calculates pixel density and automatically takes an area adjacent to each band for background corrections.
Cells were plated in complete media without antibiotics on poly D-lysine-coated plates (80,000 cells per 6 well). […]

[3] = LNCaP, low dose 5 and 10 μM, 96 hrs.

CC(C)=CCC/C(C)=C/COc1c2ccoc2cc2oc(=O)ccc12 [bergamottin]
G1 frequency, Dean-Jett-Fox (MDAPCa2b cells; Berg 5μM, 96 hrs.): 84.2 ±1.5%
G2 frequency, Dean-Jett-Fox (MDAPCa2b cells; Berg 5μM, 96 hrs.): 2.3 ±2.2%
G2 frequency, Watson Pragmatic (MDAPCa2b cells; Berg 5μM, 96 hrs.): 8.4 ±1.6%
S frequency, Dean-Jett-Fox (MDAPCa2b cells; Berg 5μM, 96 hrs.): 12.2 ±1.0%
S frequency, Watson Pragmatic (MDAPCa2b cells; Berg 5μM, 96 hrs.): 7.7 ±2.6%
G1 frequency, Dean-Jett-Fox (MDAPCa2b cells; Berg 10μM, 96 hrs.): 88.8 ±2.0%
G2 frequency, Dean-Jett-Fox (MDAPCa2b cells; Berg 10μM, 96 hrs.): 3.3 ±0.3%
G2 frequency, Watson Pragmatic (MDAPCa2b cells; Berg 10μM, 96 hrs.): 6.6 ±1.2%
S frequency, Dean-Jett-Fox (MDAPCa2b cells; Berg 10μM, 96 hrs.): 7.4 ±2.5%
S frequency, Watson Pragmatic (MDAPCa2b cells; Berg 10μM, 96 hrs.): 5.8 ±2.8%
G1 frequency, Dean-Jett-Fox (MDAPCa2b cells; Berg 20μM, 48 hrs.): 84.9 ±0.4%
G2 frequency, Dean-Jett-Fox (MDAPCa2b cells; Berg 20μM, 48 hrs.): 9.6 ±0.5%
G2 frequency, Watson Pragmatic (MDAPCa2b cells; Berg 20μM, 48 hrs.): 9.6 ±1.8%
S frequency, Dean-Jett-Fox (MDAPCa2b cells; Berg 20μM, 48 hrs.): 6.7 ±0.7%
S frequency, Watson Pragmatic (MDAPCa2b cells; Berg 20μM, 48 hrs.): 7.1 ±1.7%
G1 frequency, Dean-Jett-Fox (MDAPCa2b cells; Berg 30μM, 48 hrs.): 88.4 ±3.6%
G2 frequency, Dean-Jett-Fox (MDAPCa2b cells; Berg 30μM, 48 hrs.): 6.8 ±3.2%
G2 frequency, Watson Pragmatic (MDAPCa2b cells; Berg 30μM, 48 hrs.): 8.4 ±1.1%
S frequency, Dean-Jett-Fox (MDAPCa2b cells; Berg 30μM, 48 hrs.): 3.3 ±3.4%
S frequency, Watson Pragmatic (MDAPCa2b cells; Berg 30μM, 48 hrs.): 5.6 ±0.5%
CDK2, normalized fold change after GAPDH calibration ([1]; Bergamottin 20 μM): 62
CDK4, normalized fold change after GAPDH calibration ([1]; Bergamottin 20 μM): 46
CDK6, normalized fold change after GAPDH calibration ([1]; Bergamottin 20 μM): 60
Cyclin A, normalized fold change after GAPDH calibration ([1]; Bergamottin 20 μM): 80
Cyclin B1, normalized fold change after GAPDH calibration ([1]; Bergamottin 20 μM): 50
Cyclin D1, normalized fold change after GAPDH calibration ([1]; Bergamottin 20 μM): 43
Cyclin D3, normalized fold change after GAPDH calibration ([1]; Bergamottin 20 μM): 68
Cyclin E, normalized fold change after GAPDH calibration ([1]; Bergamottin 20 μM): 109
Myt 1, normalized fold change after GAPDH calibration ([1]; Bergamottin 20 μM): 103
P-Wee1, normalized fold change after GAPDH calibration ([1]; Bergamottin 20 μM): 63
P-cdc2, normalized fold change after GAPDH calibration ([1]; Bergamottin 20 μM): 18
P-histone H3, normalized fold change after GAPDH calibration ([1]; Bergamottin 20 μM): 294
p21, normalized fold change after GAPDH calibration ([1]; Bergamottin 20 μM): 83
p27, normalized fold change after GAPDH calibration ([1]; Bergamottin 20 μM): 112
CDK2, normalized fold change after GAPDH calibration ([1]; Bergamottin 30 μM): 67
CDK4, normalized fold change after GAPDH calibration ([1]; Bergamottin 30 μM): 30
CDK6, normalized fold change after GAPDH calibration ([1]; Bergamottin 30 μM): 12
Cyclin A, normalized fold change after GAPDH calibration ([1]; Bergamottin 30 μM): 55
Cyclin B1, normalized fold change after GAPDH calibration ([1]; Bergamottin 30 μM): 44
Cyclin D1, normalized fold change after GAPDH calibration ([1]; Bergamottin 30 μM): 12
Cyclin D3, normalized fold change after GAPDH calibration ([1]; Bergamottin 30 μM): 44
Cyclin E, normalized fold change after GAPDH calibration ([1]; Bergamottin 30 μM): 53
Myt 1, normalized fold change after GAPDH calibration ([1]; Bergamottin 30 μM): 82
P-Wee1, normalized fold change after GAPDH calibration ([1]; Bergamottin 30 μM): 37
P-cdc2, normalized fold change after GAPDH calibration ([1]; Bergamottin 30 μM): 5
P-histone H3, normalized fold change after GAPDH calibration ([1]; Bergamottin 30 μM): 35
p21, normalized fold change after GAPDH calibration ([1]; Bergamottin 30 μM): 102
p27, normalized fold change after GAPDH calibration ([1]; Bergamottin 30 μM): 183
CDK4 level (western blot) [1, 3]: did not observe any significant change
CDK6 level (western blot) [1, 3]: did not observe any significant change
cdc-2 phosphorylation (western blot) [1, 3]: Decreased cdc-2 phosphorylation
cyclin B1 level (western blot) [1, 3]: lower
cyclin D1 level (western blot) [1, 3]: lower
cyclin D3 level (western blot) [1, 3]: lower
DNA breaks (TUNEL, apoptosis) (LNCaP cells): increased DNA breaks
PARP cleavage [2]: showed apoptosis (cleaved PARP)

— article PMC8476002, “Bergamottin a CYP3A inhibitor found in grapefruit juice inhibits prostate cancer cell growth by downregulating androgen receptor signaling and promoting G0/G1 cell cycle block and apoptosis” (PLoS ONE, 2021)
